Test results: patent publication US20240376121A1, “COMPOUNDS AND USES THEREOF” (Foghorn Therapeutics Inc., priority 2021, published 2024)

How the values were obtained:
[1] = target: T1, HiBit-BRG1 fusion protein (Homo sapiens, UniProt P51532); assay: HiBiT-BRG1 cell-based degradation assay (Nano-Glo HiBiT Lytic Detection); details: stable HeLa cell line expressing HiBit-BRG1 and LgBit, 24 h incubation; for Dmax: top dose 30 μM, read-out: BRG1 HiBit Degradation Maximum (%); for DC50: read-out: BRMG1 HiBit Degradation IC50
T1 construct: expressed in transfected cells
T1 sequence (P51532 whole entry, the tested form may be a part): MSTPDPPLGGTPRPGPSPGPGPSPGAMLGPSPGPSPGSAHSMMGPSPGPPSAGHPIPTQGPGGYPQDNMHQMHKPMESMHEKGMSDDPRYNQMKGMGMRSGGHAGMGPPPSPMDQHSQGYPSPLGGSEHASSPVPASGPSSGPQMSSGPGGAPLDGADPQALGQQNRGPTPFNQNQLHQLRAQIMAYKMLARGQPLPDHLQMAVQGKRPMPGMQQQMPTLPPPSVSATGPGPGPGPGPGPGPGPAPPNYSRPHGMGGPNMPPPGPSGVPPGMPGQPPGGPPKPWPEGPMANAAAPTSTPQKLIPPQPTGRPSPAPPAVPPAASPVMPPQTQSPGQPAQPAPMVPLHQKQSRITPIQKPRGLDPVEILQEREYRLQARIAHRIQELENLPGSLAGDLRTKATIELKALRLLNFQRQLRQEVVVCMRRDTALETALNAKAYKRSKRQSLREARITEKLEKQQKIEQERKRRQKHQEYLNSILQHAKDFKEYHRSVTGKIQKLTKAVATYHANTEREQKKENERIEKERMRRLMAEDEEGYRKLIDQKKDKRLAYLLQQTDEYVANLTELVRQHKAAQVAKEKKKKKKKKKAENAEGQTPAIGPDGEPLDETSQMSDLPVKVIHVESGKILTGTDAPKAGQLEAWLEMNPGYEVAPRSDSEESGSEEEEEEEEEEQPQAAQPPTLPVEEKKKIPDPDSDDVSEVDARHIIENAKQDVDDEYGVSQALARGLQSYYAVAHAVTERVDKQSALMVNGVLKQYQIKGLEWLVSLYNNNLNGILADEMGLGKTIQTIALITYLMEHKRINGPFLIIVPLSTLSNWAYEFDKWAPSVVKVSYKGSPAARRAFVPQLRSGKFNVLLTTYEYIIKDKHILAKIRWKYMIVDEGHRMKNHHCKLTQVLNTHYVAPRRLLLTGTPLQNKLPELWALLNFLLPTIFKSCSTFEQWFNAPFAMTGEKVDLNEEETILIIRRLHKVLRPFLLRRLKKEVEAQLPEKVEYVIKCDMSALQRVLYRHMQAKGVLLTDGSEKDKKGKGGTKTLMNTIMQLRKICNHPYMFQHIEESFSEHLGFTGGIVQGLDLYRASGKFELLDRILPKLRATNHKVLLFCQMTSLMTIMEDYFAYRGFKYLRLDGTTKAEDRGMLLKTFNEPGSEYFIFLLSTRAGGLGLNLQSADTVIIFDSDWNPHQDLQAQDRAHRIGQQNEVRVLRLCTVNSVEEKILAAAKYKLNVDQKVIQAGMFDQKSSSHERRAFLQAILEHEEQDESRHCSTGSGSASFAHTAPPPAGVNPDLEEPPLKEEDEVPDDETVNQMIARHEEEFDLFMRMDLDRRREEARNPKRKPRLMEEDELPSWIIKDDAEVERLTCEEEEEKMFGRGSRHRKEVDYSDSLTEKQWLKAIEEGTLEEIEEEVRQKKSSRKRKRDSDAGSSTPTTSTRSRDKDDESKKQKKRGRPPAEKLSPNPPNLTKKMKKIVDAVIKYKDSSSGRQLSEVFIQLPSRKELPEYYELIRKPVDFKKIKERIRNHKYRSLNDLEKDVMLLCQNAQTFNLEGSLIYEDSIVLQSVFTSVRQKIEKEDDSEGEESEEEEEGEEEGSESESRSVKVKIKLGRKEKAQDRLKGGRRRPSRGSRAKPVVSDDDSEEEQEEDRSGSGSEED
Method in brief: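 HeLa cells stably expressing HiBiT-BRG1 and LgBiT treated 24 h with 10-point 3-fold dilutions (top 30 μM, duplicate). Luminescence read after Nano-Glo HiBiT lytic reagent; % degradation relative to DMSO (high control) and 2 μM reference BRM/BRG1 degrader (low control).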

HiBit-BRM fusion protein = target: T2, HiBit-BRM fusion protein (Homo sapiens, UniProt P51531); assay: HiBiT-BRM cell-based degradation assay (Nano-Glo HiBiT Lytic Detection); details: stable HeLa cell line expressing HiBiT-BRM, 24 h incubation; for BRM HiBit Degradation Maximum (%): top dose 30 μM; for DC50: read-out: BRM HiBit Degradation IC50
T2 construct: expressed in transfected cells
T2 sequence (P51531 whole entry, the tested form may be a part): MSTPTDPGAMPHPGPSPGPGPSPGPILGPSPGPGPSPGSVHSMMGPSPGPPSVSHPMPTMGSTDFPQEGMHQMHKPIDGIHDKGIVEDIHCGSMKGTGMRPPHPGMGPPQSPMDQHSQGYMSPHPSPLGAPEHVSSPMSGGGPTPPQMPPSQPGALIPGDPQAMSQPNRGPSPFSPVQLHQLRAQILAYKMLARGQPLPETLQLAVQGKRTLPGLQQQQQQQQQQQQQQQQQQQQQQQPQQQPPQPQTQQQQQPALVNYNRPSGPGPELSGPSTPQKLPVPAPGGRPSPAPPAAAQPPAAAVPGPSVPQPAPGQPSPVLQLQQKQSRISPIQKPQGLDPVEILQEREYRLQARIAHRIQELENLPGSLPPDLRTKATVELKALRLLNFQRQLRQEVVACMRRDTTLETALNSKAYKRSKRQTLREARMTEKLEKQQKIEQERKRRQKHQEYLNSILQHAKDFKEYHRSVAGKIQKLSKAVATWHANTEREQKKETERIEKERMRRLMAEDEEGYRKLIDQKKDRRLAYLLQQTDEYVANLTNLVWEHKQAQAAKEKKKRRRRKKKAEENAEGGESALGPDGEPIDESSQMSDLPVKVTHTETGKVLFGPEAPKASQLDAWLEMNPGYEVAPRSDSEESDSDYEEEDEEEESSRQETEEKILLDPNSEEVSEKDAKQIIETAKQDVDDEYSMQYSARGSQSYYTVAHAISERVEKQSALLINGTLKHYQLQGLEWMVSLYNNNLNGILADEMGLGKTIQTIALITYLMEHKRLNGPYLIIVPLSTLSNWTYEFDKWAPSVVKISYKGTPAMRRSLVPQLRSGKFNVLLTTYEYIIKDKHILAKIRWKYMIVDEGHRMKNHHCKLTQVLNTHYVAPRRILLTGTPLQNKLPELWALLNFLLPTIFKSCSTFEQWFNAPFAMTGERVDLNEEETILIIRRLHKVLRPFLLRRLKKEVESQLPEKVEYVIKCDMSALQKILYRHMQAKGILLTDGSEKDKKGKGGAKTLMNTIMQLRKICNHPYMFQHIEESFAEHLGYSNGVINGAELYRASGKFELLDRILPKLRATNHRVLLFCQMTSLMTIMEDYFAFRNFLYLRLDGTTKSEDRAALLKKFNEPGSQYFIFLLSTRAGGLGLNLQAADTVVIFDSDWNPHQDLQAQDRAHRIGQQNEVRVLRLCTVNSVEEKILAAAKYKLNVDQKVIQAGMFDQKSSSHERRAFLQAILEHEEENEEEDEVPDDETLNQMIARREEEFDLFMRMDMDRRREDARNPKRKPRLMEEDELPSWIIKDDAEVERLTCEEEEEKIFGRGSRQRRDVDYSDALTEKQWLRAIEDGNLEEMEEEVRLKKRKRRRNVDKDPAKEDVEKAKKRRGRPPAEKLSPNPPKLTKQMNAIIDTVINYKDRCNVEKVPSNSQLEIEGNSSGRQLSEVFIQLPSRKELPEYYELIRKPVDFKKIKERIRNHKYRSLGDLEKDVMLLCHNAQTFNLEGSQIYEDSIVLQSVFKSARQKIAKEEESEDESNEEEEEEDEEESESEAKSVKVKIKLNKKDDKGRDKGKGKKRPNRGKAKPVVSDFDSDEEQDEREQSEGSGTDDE
Method in brief: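 Luminescence from reconstituted NanoBiT luciferase in lysed HeLa HiBiT-BRM cells served as the measure of remaining BRM after 24 h treatment. Compounds were tested from 30 μM final downward in 3-fold steps. DMSO and 2 μM of a standard BRM/BRG1 degrader defined the scale limits.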

Dmax [1] [%]	DC50 [1] [nM]	DC50 (HiBit-BRM fusion protein) [nM]	Structure (SMILES)	BRM HiBit Degradation Maximum (%) (HiBit-BRM fusion protein)
≥ 50	≥ 100	≥ 10	Cc1ncsc1-c1ccc([C@H](C)NC(=O)[C@@H]2C[C@@H](O)CN2C(=O)[C@@H](c2cc(OCCN3C[C@H]4C[C@@H]3C[C@H]4c3sc4nnc(-c5ccccc5O)cc4c3C)no2)C(C)C)cc1 [Compound 60, (2S,4R)-4-hydroxy-1-((R)-2-(3-(2-((1R,4S,5R)-5-(3-(2-hydroxyphenyl)-5-methylthieno[2,3-c]pyridazin-6-yl)-2-azabicyclo[2.2.1]heptan-2-yl)ethoxy)isoxazol-5-yl)-3-methylbutanoyl)-N-((S)-1-(4-(4-methylthiazol-5-yl)phenyl)ethyl)pyrrolidine-2-carboxamide]	A (“A” indicates maximum degradation ≥ 75%)
< 50	≥ 1000	≥ 1000	Cc1ncsc1-c1ccc(CNC(=O)[C@@H]2C[C@@H](O)CN2C(=O)[C@@H](NC(=O)CCC(=O)N2CC(c3cc4cc(-c5ccccc5O)nnc4s3)C2)C(C)(C)C)cc1 [Compound 25]	C (“C” indicates maximum degradation < 50%)
< 50	≥ 1000	≥ 10	Cc1ncsc1-c1ccc([C@H](C)NC(=O)[C@@H]2C[C@@H](O)CN2C(=O)[C@@H](c2cc(OCCN3C[C@H]4C[C@@H]3C[C@@H]4c3sc4nnc(-c5ccccc5O)cc4c3C)no2)C(C)C)cc1 [Compound 58, (2S,4R)-4-hydroxy-1-[(2R)-2-(3-{2-[(1R,4S,5S)-5-[3-(2-hydroxyphenyl)-5-methylthieno[2,3-c]pyridazin-6-yl]-2-azabicyclo[2.2.1]heptan-2-yl]ethoxy}-1,2-oxazol-5-yl)-3-methylbutanoyl]-N-[(1S)-1-[4-(4-methyl-1,3-thiazol-5-yl)phenyl]ethyl]pyrrolidine-2-carboxamide]	A (“A” indicates maximum degradation ≥ 75%)
< 50	≥ 1000	≥ 1000	Cc1ncsc1-c1ccc(CNC(=O)[C@@H]2C[C@@H](O)CN2C(=O)[C@@H](NC(=O)C2(F)CC2)C(C)(C)C)c(OCCN2CCC(c3sc4nnc(-c5ccccc5O)cc4c3C)CC2)c1 [Compound 83, (2S,4R)-1-((S)-2-(1-fluorocyclopropane-1-carboxamido)-3,3-dimethylbutanoyl)-4-hydroxy-N-(2-(2-(4-(3-(2-hydroxyphenyl)-5-methylthieno[2,3-c]pyridazin-6-yl)piperidin-1-yl)ethoxy)-4-(4-methylthiazol-5-yl)benzyl)pyrrolidine-2-carboxamide]	C (“C” indicates maximum degradation < 50%)
< 50	≥ 1000	≥ 10	Cc1ncsc1-c1ccc([C@H](C)NC(=O)[C@@H]2C[C@@H](O)CN2C(=O)[C@@H](c2cc(OCCN3C[C@@H]4[C@H](C3)[C@H]4c3cc4cc(-c5ccccc5O)nnc4s3)no2)C(C)C)cc1 [Compound 32]	A (“A” indicates maximum degradation ≥ 75%)
< 50	≥ 1000	≥ 10	Cc1ncsc1-c1ccc([C@H](C)NC(=O)[C@@H]2C[C@@H](O)CN2C(=O)[C@@H](c2cc(OCCN3CC(Cc4sc5nnc(-c6ccccc6O)cc5c4C)C3)no2)C(C)C)cc1 [Compound 16]	A (“A” indicates maximum degradation ≥ 75%)
< 50	≥ 1000	≥ 1000	Cc1ncsc1-c1ccc([C@H](C)NC(=O)[C@@H]2C[C@@H](O)CN2C(=O)[C@@H](c2cc(OCCN3CCC(c4csc5nnc(-c6ccccc6O)cc45)CC3)no2)C(C)C)cc1 [Compound 101, (2S,4R)-4-hydroxy-1-((R)-2-(3-(2-(4-(3-(2-hydroxyphenyl)thieno[2,3-c]pyridazin-5-yl)piperidin-1-yl)ethoxy)isoxazol-5-yl)-3-methylbutanoyl)-N-((S)-1-(4-(4-methylthiazol-5-yl)phenyl)ethyl)pyrrolidine-2-carboxamide]	C (“C” indicates maximum degradation < 50%)
< 50	≥ 1000	≥ 10	Cc1ncsc1-c1ccc([C@@H](C)NC(=O)[C@H]2C[C@H](O)CN2C(=O)[C@H](c2cc(OCCN3C[C@@H]4[C@H](C3)[C@H]4c3sc4nnc(-c5ccccc5O)cc4c3C)no2)C(C)C)cc1 [Compound 15]	A (“A” indicates maximum degradation ≥ 75%)
≥ 50	≥ 100	≥ 10	Cc1ncsc1-c1ccc([C@H](C)NC(=O)[C@@H]2C[C@@H](O)CN2C(=O)[C@@H](c2cc(N3C[C@H]4C[C@@H]3CN4C(=O)[C@H]3CCc4sc5nnc(-c6ccccc6O)cc5c4C3)no2)C(C)C)cc1 [Compound 41, (2S,4R)-4-hydroxy-1-((R)-2-(3-((1R,4R)-5-((S)-3-(2-hydroxyphenyl)-5,6,7,8-tetrahydrobenzo[4,5]thieno[2,3-c]pyridazine-6-carbonyl)-2,5-diazabicyclo[2.2.1]heptan-2-yl)isoxazol-5-yl)-3-methylbutanoyl)-N—((S)-1-(4-(4-methylthiazol-5-yl)phenyl)ethyl)pyrrolidine-2-carboxamide]	A (“A” indicates maximum degradation ≥ 75%)
< 50	≥ 1000	≥ 100	Cc1ncsc1-c1ccc([C@H](C)NC(=O)[C@@H]2C[C@@H](O)CN2C(=O)[C@@H](c2cc(C3CCN(C(=O)CN4CC(c5cc6cc(-c7ccccc7O)nnc6s5)C4)CC3)no2)C(C)C)cc1 [Compound 13]	B (“B” indicates maximum degradation ≥ 50%)
< 50	≥ 1000	≥ 10	Cc1cc([C@H](C(=O)N2C[C@H](O)C[C@H]2C(=O)NCc2ccc(-c3scnc3C)cc2OCCCN2CCC(c3sc4nnc(-c5ccccc5O)cc4c3C)CC2)C(C)C)on1 [Compound 57, (2S,4R)-4-hydroxy-N-(2-(3-(4-(3-(2-hydroxyphenyl)-5-methylthieno[2,3-c]pyridazin-6-yl)piperidin-1-yl)propoxy)-4-(4-methylthiazol-5-yl)benzyl)-1-((R)-3-methyl-2-(3-methylisoxazol-5-yl)butanoyl)pyrrolidine-2-carboxamide]	B (“B” indicates maximum degradation ≥ 50%)
< 50	≥ 1000	≥ 10	Cc1ncsc1-c1ccc([C@H](C)NC(=O)[C@@H]2C[C@@H](O)CN2C(=O)[C@@H](c2cc(OCCN3CC(c4cc5cc(-c6ccccc6O)nnc5s4)C3)no2)C(C)C)cc1 [Compound 1, (2S,4R)-4-hydroxy-1-((R)-2-(3-(2-(3-(3-(2-hydroxyphenyl)thieno[2,3-c]pyridazin-6-yl)azetidin-1-yl)ethoxy)isoxazol-5-yl)-3-methylbutanoyl)-N—((S)-1-(4-(4-methylthiazol-5-yl)phenyl)ethyl)pyrrolidine-2-carboxamide]	B (“B” indicates maximum degradation ≥ 50%)
< 50	≥ 1000	≥ 100	Cc1ncsc1-c1ccc([C@H](C)NC(=O)[C@@H]2C[C@@H](O)CN2C(=O)[C@@H](c2cc(N3CCN(C(=O)CN4CC(c5cc6cc(-c7ccccc7O)nnc6s5)C4)CC3)no2)C(C)C)cc1 [Compound 3, (2S,4R)-4-hydroxy-1-[(2R)-2-{3-[4-(2-{3-[3-(2-hydroxyphenyl)thieno[2,3-c]pyridazin-6-yl]azetidin-1-yl}acetyl)piperazin-1-yl]-1,2-oxazol-5-yl}-3-methylbutanoyl]-N-[(1S)-1-[4-(4-methyl-1,3-thiazol-5-yl)phenyl]ethyl]pyrrolidine-2-carboxamide]	A (“A” indicates maximum degradation ≥ 75%)
< 50	≥ 1000	≥ 1000	Cc1ncsc1-c1ccc(CNC(=O)[C@H]2C[C@H](O)CN2C(=O)[C@H](NC(=O)CCC(=O)N2CC(c3sc4nnc(-c5ccccc5O)cc4c3C)C2)C(C)(C)C)cc1 [Compound 20]	C (“C” indicates maximum degradation < 50%)
< 50	≥ 1000	≥ 1000	Cc1ncsc1-c1ccc([C@H](C)NC(=O)[C@@H]2C[C@@H](O)CN2C(=O)[C@@H](c2cc(OCCN3CC(Cc4csc5nnc(-c6ccccc6O)cc45)C3)no2)C(C)C)cc1 [Compound 111, (2S,4R)-4-hydroxy-1-((R)-2-(3-(2-(3-((3-(2-hydroxyphenyl)thieno[2,3-c]pyridazin-5-yl)methyl)azetidin-1-yl)ethoxy)isoxazol-5-yl)-3-methylbutanoyl)-N-((S)-1-(4-(4-methylthiazol-5-yl)phenyl)ethyl)pyrrolidine-2-carboxamide]	C (“C” indicates maximum degradation < 50%)

Structure (SMILES)	Dmax [1] [%]	DC50 [1] [nM]	DC50 (HiBit-BRM fusion protein) [nM]	BRM HiBit Degradation Maximum (%) (HiBit-BRM fusion protein)
Cc1ncsc1-c1ccc([C@H](C)NC(=O)[C@@H]2C[C@@H](O)CN2C(=O)[C@@H](c2cc(OCCN3C[C@H]4C[C@@H](C3)[C@@H]4c3cc4cc(-c5ccccc5O)nnc4s3)no2)C(C)C)cc1 [Compound 71, (2S,4R)-4-hydroxy-N-[(1S)-1-[4-(4-methyl-1,3-thiazol-5-yl)phenyl]ethyl]-1-[(2R)-3-methyl-2-(3-{2-[(1R,5S,6r)-6-[3-(2-hydroxyphenyl)thieno[2,3-c]pyridazin-6-yl]-3-azabicyclo[3.1.1]heptan-3-yl]ethoxy}-1,2-oxazol-5-yl)butanoyl]pyrrolidine-2-carboxamide]	< 50	≥ 1000	≥ 10	A (“A” indicates maximum degradation ≥ 75%)
